The subject of data set [1] is MCH1-KO mice. Put plainly: daily i.p. S38151 in MCH1-KO mice. Type of data set: in vivo, mouse. How it is done:
In these studies, 13-week-old female C57BL/6J, ob/ob, and MCH1-KO mice were used. The mice were maintained on a 12-h light/dark cycle (lights on at 07:30 and off at 19:30) at 22 ± 3°C, and supplied with food pellets (6 mm diameter A03, UAR Laboratory chow, Epinay Villemuisson France) and tap water ad libitum. To induce obesity in C57BL/6J (creating diet-induced obese, or DIO, mice), mice were fed a high-fat diet (60 kcal% fat, 20 kcal% protein, 20 kcal% carbohydrate, ref D12492 from Research Diets, New Brunswick, NJ08901, USA) for 8 weeks starting at 4 weeks of age. In these experiments, DIO mice, ob/ob mice, and MCH^−/−1 mice were individually housed in a modular chamber that was placed on an activity platform to concurrently measure the food intake, water intake, and activity of the mice (ADDENFI, Les Cordeliers, Paris, France). For at least 2 weeks before experimentation, mice were habituated to a diet of 6 mm diameter food pellets of the following composition: 67.5% food flour, 26.5% sucrose, 5% gum tragacanth, 1.25% magnesium stearate (A03 UAR, Orge, France), and to i.p. injection. After this habituation period, food intake, drink intake, and body weight were measured for 3 consecutive days. The mice were randomized into three groups based on their food and water intake over the three preceding 24-h periods, and on their body weight. Next, the quantity of food eaten over each 24-h period during the 5 days of i.p. treatment with S38151 [10 and 30 mg/kg/day (7 and 20 μmol/kg/day)] or vehicle was determined and corrected for spillage.
Figure 10 The effects of repeated daily S38151 injection on food and water intake, body weight, and motility in MCHR1-KO mice. MCH1-KO mice were administered S38151 (10 and 30 mg/kg, i.p.) or vehicle (normal saline i.p.) for 5 consecutive days. Results are expressed as mean ± SEM (n = 8 mice per group).

Data set [2] is described as follows: stability in TRIS buffer pH 7.4. Type of data set: physicochemical. The following applies: pH 7.4, Tris buffer pH 7.4, 40 μM, LC-MS/MS, representative of three experiments, read-out: % S38151 remaining. How it is done: (§1) First, S38151 was incubated for 16 h at 4°C and 37°C in mouse plasma or in TRIS buffer (pH 7.4). Next, plasma proteins were precipitated with two volumes of acetonitrile. After centrifugation and dilution with a water/acetonitrile mixture (50/50 v/v), the supernatant was injected onto a triple quadripole mass spectrometer (Ultima, Micromass WATERS Corporation, Milford, USA). The liquid chromatographic system consisted of an Agilent 1100 analytic pump (Agilent, Santa Clara, USA) equipped with an Alpha Mos CTC autosampler (Alpha Mos, Toulouse, France). Mass detection was performed using the m/z transition 743.5 > 163, in positive electrospray. A second stability study was performed at a lower concentration (1 μM) and for 4 h, with the following sampling times: 0, 15, 45, 90, and 240 min. At each sampling time, 50 μL of plasma were precipitated with two volumes of acetonitrile, and after centrifugation were directly injected onto the LC-MS/MS system. The same treatment was used for the buffer samples.
(§2) Figure 2 Studies regarding the stability of S38151. A solution of S38151 (40 μM) was incubated with either Tris buffer, pH 7.4 (hatched bars), or mouse plasma samples (dark bars) for 16 h at 4°C or 37°C. The samples were analyzed using liquid chromatography coupled to mass spectrometry. Experiments were repeated three times. The chart presented is representative of the experimental results. […]

Data set [3] can be described thus: detection of compound in brain of treated animals. The following applies: brains from S38151-treated (i.p.-injected) animals, LC-MS/MS, data not shown. The format is in vivo. How it is done:
as §1
Furthermore, we were unable to detect traces of this pseudopeptide in the brains of i.p.-injected animals. Similarly, its effect could not be correlated with aversion owing to a bad test.

A short description of data set [4]: stability in mouse plasma. Type of data set: in vitro ADME. The settings on record: LC-MS/MS, representative of three experiments, read-out: % S38151 remaining. On the procedure: as §1, §2
The mark [5] stands for this setting: S38151 10 and 30 mg/kg i.p. daily for 5 days, n = 8.

The values below come from PMC3527734, “Peripheral injections of melanin-concentrating hormone receptor 1 antagonist S38151 decrease food intake and body weight in rodent obesity models” (Frontiers in Endocrinology, 2012).

Where a SMILES comes first, the peptide text is derived from it.

Take `CSCC[C@@H]1NC(=O)[C@@H](NC(=O)c2ccc(NC(=N)N)cc2)CSSC[C@@H](C(=O)N[C@@H](Cc2c[nH]c3ccccc23)C(=O)O)NC(=O)[C@@H]2CCCN2C(=O)[C@H](CCCNC(=N)N)NC(=O)[C@H](Cc2ccc(O)cc2)NC(=O)[C@H](C(C)C)NC(=O)[C@H](CCCNC(=N)N)NC(=O)[C@H](CC(C)C)NC1=O` [S38151, p-guanidinobenzoyl-(Des-Gly10)-MCH (7–17)] (HELM PEPTIDE1{[N=C(N)Nc1ccc(C(=O)[*:2])cc1].C.M.L.R.V.Y.R.P.C.W}$PEPTIDE1,PEPTIDE1,2:R3-10:R3$$$V2.0; C-terminus assumed): the motility entry in data set [1] (S38151 30 mg/kg (20 μmol/kg/day) i.p. daily for 5 days) was “significant reduction”. In data set [1] (setting [5]), the body weight entry is on record as “did not induce any significant effects”. Also, the drink intake result in data set [1] (setting [5]) is given as “did not induce any significant effects”. For the same compound, the food intake entry in data set [1] (setting [5]) is reported as “did not induce any significant effects”. The amount remaining (commonly the share of the starting amount still present when the sample was taken) at 16 h, 40 μM in data set [2] (4°C) came out at 79%; in data set [2] (37°C), 32%; in data set [4] (4°C) it was 59%; in data set [4] (37°C), 1.5%. Also, in data set [3], the “amount of compound detectable in the brain” value is “none was detected”.
